Tests used:
[1] = system: DEFB103 (Human β-defensin 3) mRNA expression; experiment: DEFB103 (human β-defensin 3) mRNA expression in hTCEpi cells, quantitative PCR; type: cell-based; settings: hTCEpi corneal epithelial cells, treated individually, 24 hours
Protocol: Telomerase immortalized human corneal epithelial cells (hTCEpi cells, passage 40-50) were grown in 6-well plates to 80-90% confluence. Cells were treated with andrographolide, oridonin, isoliquiritigenin (Selleck Chem) individually for 24 hours, at concentrations previously determined to have no effect on cellular viability based on cell morphology, MTT assay and RNA yield. Vehicle control type was based on manufacturers' diluent recommendation and concentration was equivalent to the diluent concentration in the highest treatment (andrographolide and oridonin: DMSO, isoliquiritigenin: ethanol). After 24 hours, media was aspirated from each well and washed with sterile PBS. Total RNA was extracted (GeneJet) and quantified (NanoDrop). Approximately 50 ng of total RNA from each sample was reverse transcribed and quantitative PCR was performed using […] for DEFB103 (ThermoFisher), and GAPDH specific aptamers were used as a control. Expression of DEFB103 was calculated using the 2^-ddCt method. A one-way ANOVA was performed to determine statistical significance with a post-hoc test to determine individual differences.
Separate time course experiments were performed as described above, where data points were taken at 2, 6, 12, and 24 hours.

[2] = system: human β-defensin 3 (hBD3) peptide; experiment: hBD3 peptide expression in hTCEpi cells, ELISA of supernatant; type: cell-based; settings: increasing concentrations, 48 hours
Protocol: hTCEpi cells were seeded into a 6-well plate coated with FNC material and allowed to grow to 80% confluence. The cells were subsequently treated with increasing concentrations of andrographolide (10, 25, 50, 75, 100 μM), oridonin (1, 2, 5, 10, 15 μM), isoliquiritigenin (5, 10, 15, 25, 50 μM) for 48 hours, and a negative control (vehicle: DMSO or EtOH). After treatment, the supernatant was collected and 100 μl was used to quantify hBD3 peptide concentration (Defensin 3, beta (human) ELISA Kit, Phoenix Pharmaceuticals Inc) and performed in duplicate for each treatment. An hBD3 peptide standard curve was generated from the ELISA kit reagents. The concentration of each experimental well was determined from the linear regression equation generated from the absorbance values of the hBD3 standards. […] It is important to note that the majority of the AMP research fails to detect peptide concentrations from both in vitro and in vivo experiments despite observing upregulation at the mRNA level and the ability to augment antimicrobial activity of cells in either context.

| Molecule | increase of human β-defensin 3 mRNA expression over vehicle control alone [1] | hBD3 peptide expression [2] |
| --- | --- | --- |
| O=C(/C=C/c1ccc(O)cc1)c1ccc(O)cc1O [isoliquiritigenin] | 9-10 fold | below the limit of detection |
| oridonin | 4 fold | below the limit of detection |
| C=C1CC[C@@H]2[C@](C)(CO)[C@H](O)CC[C@@]2(C)[C@@H]1C/C=C1/C(=O)OC[C@H]1O [andrographolide] | 360 fold | markedly upregulated in a dose-dependent manner |

From patent US20230069586A1, “METHODS OF USING ANDROGRAPHOLIDE, ORIDONIN AND ISOLIQUIRITIGENIN AND DERIVATIVES THEREOF” (THE REGENTS OF THE UNIVERSITY OF CALIFORNIA, priority 2020, published 2023)
